Test results from paper PMC9229843, “Cancer-Related Somatic Mutations in Transmembrane Helices Alter Adenosine A1 Receptor Pharmacology” (Molecules, 2022).
Positions count from the first letter of the chain named.

Tests used:
[1] = molecular target: T1, hA1AR W188C^5.46 (Homo sapiens, UniProt P30542, W188C)
T1 sequence (P30542 1-326 W188C): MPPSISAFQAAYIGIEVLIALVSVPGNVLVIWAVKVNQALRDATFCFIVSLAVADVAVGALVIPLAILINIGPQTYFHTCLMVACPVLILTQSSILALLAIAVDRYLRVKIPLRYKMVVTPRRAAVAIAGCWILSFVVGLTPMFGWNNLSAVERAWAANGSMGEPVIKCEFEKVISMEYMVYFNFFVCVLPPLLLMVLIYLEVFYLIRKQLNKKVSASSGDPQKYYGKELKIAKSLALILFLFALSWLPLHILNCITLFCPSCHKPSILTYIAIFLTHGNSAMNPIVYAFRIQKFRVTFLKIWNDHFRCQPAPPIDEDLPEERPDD
Protocol: (§1) Transient transfection of CHO cells with wild type or mutated hA1AR plasmid constructs was performed using a polyethylenimine (PEI) method. Cells were seeded in 10-cm culture dishes to achieve 50–60% confluency 24 h prior to transfection. On the day of transfection, cells were transfected with a PEI: DNA ratio of 3:1 and a plasmid DNA amount of 10 μg/dish. Moreover, 24 h post-transfection, the medium was refreshed, and 48 h after transfection, cells were collected and membranes were prepared as previously described. Membranes were aliquoted in 250 or 100 μL and stored at −80 °C. Membrane protein concentrations were determined using the BCA method.
(§2) [^35S]GTPγS binding assays were adapted from a previously published method. […] Then, 20 µL of [^35S]GTPγS (final concentration of 0.3 nM) was added to each well, followed by 90 min of incubation at 25 °C. Incubations were terminated and filter-bound radioactivity was measured as described above.
(§3) All experimental data were analyzed by GraphPad Prism 7.0 or 8.0 (GraphPad Software Inc., San Diego, CA, USA). Data from yeast liquid growth and [^35S]GTPγS binding assays were analyzed by non-linear regression using “log (agonist) vs. response (three parameters)” or “log (inhibitor) vs. response (three parameters)” to obtain potency (EC50), inhibitory potency (IC50), and efficacy (Emax or Imax) values. The radioligand displacement curves were obtained from a statistically preferred one-site or two-site binding model. pKi values were calculated from pIC50 values using the Cheng–Prusoff equation, where KD values were obtained from the homologous competition assays from this study and calculated by non-linear regression using “one site–homologous” [62].

[2] = molecular target: T2, hA1AR S246T^6.47 (Homo sapiens, UniProt P30542, S246T); details: [35S]GTPγS; ratio over basal activity of wild type hA1AR
T2 sequence (P30542 1-326 S246T): T1 sequence (P30542 1-326 W188C) with C188W, S246T
Protocol: as §1, §2, §3

[3] = molecular target: T3, hA1AR G279S^7.44 (Homo sapiens, UniProt P30542, G279S); details: [35S]GTPγS; ratio over basal activity of wild type hA1AR
T3 sequence (P30542 1-326 G279S): T1 sequence (P30542 1-326 W188C) with C188W, G279S
Protocol: as §1, §2, §3

[4] = molecular target: T4, hA1AR H78L^3.23 (Homo sapiens, UniProt P30542, H78L); details: [35S]GTPγS; ratio over basal activity of wild type hA1AR
T4 sequence (P30542 1-326 H78L): T1 sequence (P30542 1-326 W188C) with H78L, C188W
Protocol: as §1, §2, §3

[5] = molecular target: T5, hA1AR L134F^4.52 (Homo sapiens, UniProt P30542, L134F); details: [35S]GTPγS; ratio over basal activity of wild type hA1AR
T5 sequence (P30542 1-326 L134F): T1 sequence (P30542 1-326 W188C) with L134F, C188W
Protocol: as §1, §2, §3

SMILES: OC[C@H]1O[C@@H](n2cnc3c(NC4CCCC4)ncnc32)[C@H](O)[C@@H]1O [CPA, N^6-cyclopentyladenosine]
- Emax ([1]; [35S]GTPγS, ratio over basal activity of wild type hA1AR): 1.94 ± 0.02
- decrease in the potency value versus wild type ([1]; mammalian system): 10 fold
- Emax [2]: 1.21 ± 0.10
- Emax [3]: 1.57 ± 0.20
- Emax [4]: 1.40 ± 0.10
- Emax [5]: 1.48 ± 0.24
